Assay [1] deals with T1, TH:DNAJC12 complex (Homo sapiens, UniProt P07101).
T1 construct: both full-length wild-type, each expressed in E. coli as HisMBP fusion, tags cut with TEV protease; with DnaJ homolog subfamily C member 12
Kind of assay: TH activity, L-Dopa quantified by HPLC with fluorescence detection. It is filed as biochemical.

Assay [2] has as its target T1, TH:DNAJC12 complex. As to the kind of experiment: cryo-EM 3D reconstruction ([…] Å map). The assay is classed as binding. Conditions: Fe(III)-catecholate complex; map EMD-18289, no PDB model deposited; regulatory helix 39-58 density at active sites.
The target of assay [3] is T1, TH:DNAJC12 complex. Kind of assay: differential scanning fluorimetry (SYPRO Orange). The assay is classed as binding. Conditions: 0.23 µM TH:DNAJC12 complex, 9 µM DA, ferrous ammonium sulfate; stabilization.
In assay [4] the target is T2, TH (TH-WT, hTH1) (Homo sapiens, UniProt P07101).
T2 construct: full-length wild-type (C-terminal residue 497), expressed in E. coli as HisMBP fusion from pETMBP1a/hTH1, tags cut with TEV protease
As to the kind of experiment: TH activity, L-Dopa quantified by HPLC with fluorescence detection. The assay is classed as biochemical.

Assay [5] has as its target T2, TH (TH-WT, hTH1). Kind of assay: differential scanning fluorimetry (SYPRO Orange). The note with it: 0.23 µM TH tetramer, 9 µM DA, ferrous ammonium sulfate; stabilization. The assay is classed as binding. (Differential scanning fluorimetry follows unfolding on heating by fluorescence.)

T1 sequence (P07101 1-497 isoform P07101-3): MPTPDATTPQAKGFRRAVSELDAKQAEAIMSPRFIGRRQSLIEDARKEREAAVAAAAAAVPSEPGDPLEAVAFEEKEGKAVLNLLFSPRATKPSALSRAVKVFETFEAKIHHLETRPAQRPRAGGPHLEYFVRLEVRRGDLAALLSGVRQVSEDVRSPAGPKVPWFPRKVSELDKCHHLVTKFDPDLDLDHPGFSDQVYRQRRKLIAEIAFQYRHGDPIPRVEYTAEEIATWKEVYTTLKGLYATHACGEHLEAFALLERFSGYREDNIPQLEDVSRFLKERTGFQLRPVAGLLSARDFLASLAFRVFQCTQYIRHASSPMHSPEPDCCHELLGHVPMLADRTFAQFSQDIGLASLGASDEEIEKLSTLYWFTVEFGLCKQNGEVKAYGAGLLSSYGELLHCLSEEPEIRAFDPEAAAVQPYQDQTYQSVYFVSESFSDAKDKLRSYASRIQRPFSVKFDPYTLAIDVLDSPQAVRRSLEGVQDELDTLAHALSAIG
T1 sequence (Q9UKB3 whole entry partner, the tested form may be a part): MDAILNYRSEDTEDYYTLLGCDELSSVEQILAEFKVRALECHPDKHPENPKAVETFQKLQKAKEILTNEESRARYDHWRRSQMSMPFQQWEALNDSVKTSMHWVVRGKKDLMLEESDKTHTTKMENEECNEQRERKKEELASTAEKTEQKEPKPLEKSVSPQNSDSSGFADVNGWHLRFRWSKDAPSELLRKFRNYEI
T2 sequence (P07101 1-497 isoform P07101-3): as the sequence (P07101 1-497 isoform P07101-3) above

On to `NCCc1ccc(O)c(O)c1` [dopamine], for which the half-inhibitory concentration (IC50) (in general, the concentration at which inhibition is half-maximal) at TH:DNAJC12 complex [1] was determined as 356 ± 103 nM; on TH (TH-WT, hTH1) [4] it was 363 ± 82 nM. On TH:DNAJC12 complex [2], the “cryo-EM 3D reconstruction (5.0 Å map)” value was 3D reconstruction of TH:DNAJC12 in the presence of the feedback inhibitor DA (TH(DA):DNAJC12). Besides, the Tm entry at TH:DNAJC12 complex [3] is on record as “we also observed a Tm increase for the TH:DNAJC12 complex in the presence of DA”; on TH (TH-WT, hTH1) [5], “adding equimolar amounts of DA (per TH subunit) increased the Tm of TH”.

Source of the values: publication PMC11926245, “Structural recognition and stabilization of tyrosine hydroxylase by the J-domain protein DNAJC12” (Nature Communications, 2025).
